{"source": "patent US10736968B2", "about": "“Cellular signalling inhibitors, their formulations and methods thereof” (INVICTUS ONCOLOGY PVT. LTD., priority 2016, dated 2020)", "system": "B16/F10 melanoma", "test": "B16/F10 melanoma tumor growth", "type": "in vivo, mice", "conditions": "45 mg/kg on day 0, day 4 and day 8", "text": "FIG. 6. Effect of BLN101 on tumor growth inhibition. […] To validate the therapeutic efficacy of AK750, we randomly sorted mice bearing B16/F10 melanoma into three groups and treated each group with one of the following: blank vehicle (control); AK750; and BLZ945. The mice injected with vehicle formed large tumors by Day 10 (the day of first injection being Day 0), and consequently were killed. The animals in the other groups were also killed at the same time point to evaluate the effect of the treatments on tumor pathology. […] Changes in body weight were within the acceptable limits.\nActivity Studies of Compound of Formula I • Efficacy of BLN101 vs BLZ945 on the ability to inhibit CSF1R in vitro is studied. RAW264.7 cells are treated with BLZ945 (67 nM) or BLN101 (67 nM) for different time points, at the end of which the cells were exposed to CSF1 (10 ng/ml) for 20 min. The cells were then lysed and analyzed for phosphorylated CSF1R levels. […] Efficacy of BLN101 (in formulation AK750) vs BLZ945 on increase in iNOS expression in vitro is studied. It is observed that exposure to Tumor Conditioned Media over 24 h decreases INOS levels. […] At different time-points, the cells are harvested and analyzed the population for M1 (MHCII+, CD86+, CD80+) or M2 (CD206+) markers using fluorescence activated cell sorting (FIG. 5d). […]"}
{"smiles": "CNC(=O)c1cc(Oc2ccc3nc(N[C@@H]4CCCC[C@H]4O)sc3c2)ccn1", "note": "[BLZ-945]", "values": [{"measurement": "tumor growth", "result": "decreased tumor growth compared with vehicle-treated animals"}]}
